The structures appear in SMILES notation.

The values below come from US7635664B2, “Herbicidal substituted benzoylpyrazoles” (Bayer CropScience AG, priority 2001, dated 2009).

The first data set relates to weeds. As to the kind of experiment: Pre-emergence test (Example A), weeds. Format: in vivo. Conditions: soil sprayed 24 hours after sowing; rated after three weeks as % damage vs untreated control. How it is done: To produce a suitable preparation of active compound, 1 part by weight of active compound is mixed with the stated amount of solvent, the stated amount of emulsifier is added and the concentrate is diluted with water to the desired concentration.
Seeds of the test plants are sown in normal soil. After 24 hours, the soil is sprayed with the preparation of active compound such that the particular amount of active compound desired is applied per unit area. The concentration of active compound in the spray liquor is chosen such that the particular amount of active compound desired is applied in 1000 liters of water per hectare.
After three weeks, the degree of damage to the plants is rated in % damage in comparison to the development of the untreated control. The figures denote: • 0%=no effect (like untreated control) • 100%=total destruction
As to `CON(C)C(=O)Nc1c(Cl)ccc(C(=O)c2cnn(C)c2O)c1Cl` [Example 3], the “activity against weeds, pre-emergence” value is “strong activity”.

System in the next data set: not listed separately
As to the kind of experiment: logP determination by HPLC on reversed-phase column, acidic range. It is filed as physicochemical. Conditions: HPLC reversed-phase column (C 18), 43° C., acidic range: 0.1% aqueous phosphoric acid, acetonitrile; marked a). From the text: (a) Mobile phases for the determination in the acidic range: 0.1% aqueous phosphoric acid, acetonitrile; linear gradient from 10% acetonitrile to 90% acetonitrile—the corresponding measurement results in Table 1 are marked ^a).
For `Cc1nn(C)c(O)c1C(=O)c1ccc(Cl)c(NC(=O)N2CCCO2)c1Cl` [Example 185], the logP result is “(I-2) logP = 1.10^a)”.
On the same count and under the same terms, the entry for `CCn1nc(C)c(C(=O)c2ccc(Cl)c(NC(=O)N3CCCO3)c2Cl)c1O` [Example 186] is “(I-2) logP = 1.31^a)”.

The same data set, now with this note: marked a): acidic range, 0.1% aqueous phosphoric acid, acetonitrile gradient, 43° C.
Take `COC(=O)c1ccc(Cl)c(NC(=O)N2CCOCC2)c1Cl` [IIIa-6]: the “logP a)” value is listed as “logP = 1.34^a)”.
On the same count and under the same terms, the entry for `COC(=O)c1ccc(Cl)c(NC(=O)NN(C)C)c1Cl` [IIIa-7] is “logP = 1.64^a)”.
On the same count and under the same terms, next, `COC(=O)c1ccc(Cl)c(NC(=O)N2CCN(C)CC2)c1Cl` [IIIa-8]: “logP = 0.50^a)”; `COC(=O)c1ccc(C(F)(F)F)cc1NC(=O)N(C)OC` [IIIa-9]: “logP = 3.35^a)”; `COC(=O)c1ccc(C(F)(F)F)cc1NC(=O)N1CCN(C)C1=O` [IIIa-10]: “logP = 2.76^a)”.

Still in this data set, the particulars now being: marked a): acidic range, 0.1% aqueous phosphoric acid/acetonitrile gradient, reversed-phase C 18 HPLC, 43° C.
For `CON(C)C(=O)Nc1c(Cl)ccc(C(=O)c2cnn(C)c2O)c1Cl` [Example 3], the logP result is “(I-2) logP = 1.13^a)”.
Still for that read-out and setting: the entry for `CCn1ncc(C(=O)c2ccc(C(F)(F)F)cc2NC(=O)N(C)OC)c1O` [Example 7] is “(I-1) logP = 2.93^a)”.
On the same count and under the same terms, the entry for `CON(C)C(=O)Nc1cc(C(F)(F)F)ccc1C(=O)c1cnn(C)c1O` [Example 8] is “(I-1) logP = 2.50^a)”; for `CN1CCCN(C(=O)Nc2c(Cl)ccc(C(=O)c3cnn(C)c3O)c2Cl)C1=O` [Example 9] it is “(I-2) logP = 1.55^a)”.
Turning to `Cn1ncc(C(=O)c2ccc(Cl)c(NC(=O)N3CCOCC3)c2Cl)c1O` [Example 10], the logP result was “(I-2) logP = 0.82^a)”.
Same read-out and setting: next, `CCn1ncc(C(=O)c2ccc(C(F)(F)F)cc2NC(=O)N2CCN(C)C2=O)c1O` [Example 11]: “(I-1) logP = 2.42^a)”; `CCN1CCN(C(=O)Nc2c(Cl)ccc(C(=O)c3cnn(C)c3O)c2Cl)C1=O` [Example 12]: “(I-2) logP = 1.63^a)”; `CCN1CCN(C(=O)Nc2c(Cl)ccc(C(=O)c3cnn(CC)c3O)c2Cl)C1=O` [Example 13]: “(I-2) logP = 1.86^a)”.
For the molecule `CCn1ncc(C(=O)c2ccc(Cl)c(NC(=O)NN3CCOCC3)c2Cl)c1O` [Example 14], the logP entry was “(I-2) logP = 1.25^a)”.
As for `Cn1ncc(C(=O)c2ccc(Cl)c(NC(=O)NN3CCOCC3)c2Cl)c1O` [Example 15], the logP result is recorded as “(I-2) logP = 1.03^a)”.
The same measure, in the same setting: the entry for `Cn1ncc(C(=O)c2ccc(Cl)c(NC(=O)NN3CCCC3)c2Cl)c1O` [Example 16] is “(I-2) logP = 1.17^a)”.
Still for that read-out and setting: next, `CN1CCN(C(=O)Nc2cc(C(F)(F)F)ccc2C(=O)c2cnn(C)c2O)C1=O` [Example 17]: “(I-1) logP = 2.12^a)”; `CCN1CCCN(C(=O)Nc2c(Cl)ccc(C(=O)c3cnn(CC)c3O)c2Cl)C1=O` [Example 18]: “(I-2) logP = 2.11^a)”; `CCN1CCCN(C(=O)Nc2c(Cl)ccc(C(=O)c3cnn(C)c3O)c2Cl)C1=O` [Example 19]: “(I-2) logP = 1.83^a)”.
The same measure, in the same setting: the entry for `Cn1ncc(C(=O)c2ccc(Cl)c(NC(=O)NC3CC3)c2Cl)c1O` [Example 21] is “(I-2) logP = 0.99^a)”; for `Cn1ncc(C(=O)c2ccc(Cl)c(NC(=O)N3CCCC3)c2Cl)c1O` [Example 24] it is “(I-2) logP = 1.18^a)”.
With `CC(C)N1CCCN(C(=O)Nc2c(Cl)ccc(C(=O)c3cnn(C)c3O)c2Cl)C1=O` [Example 33], the logP entry was “(I-2) logP = 2.11^a)”.
Still for that read-out and setting: next, `Cn1ncc(C(=O)c2ccc(Cl)c(NC(=O)NCC3CCCO3)c2Cl)c1O` (stereo not drawn) [Example 41]: “(I-2) logP = 1.10^a)”; `Cn1ncc(C(=O)c2ccc(Cl)c(NC(=O)Nc3nnc(C(F)(F)F)s3)c2Cl)c1O` [Example 47]: “(I-2) logP = 1.99^a)”.
As for `CCn1ncc(C(=O)c2ccc(Cl)c(N(C)C(=O)N3CCN(C)C3=O)c2Cl)c1O` [Example 99], the logP entry is on record as “(I-2) logP = 1.40^a)”.
The same measure, in the same setting: next, `CCn1ncc(C(=O)c2ccc(Cl)c(NC(=O)NN3CCCC3)c2Cl)c1O` [Example 100]: “(I-2) logP = 1.42^a)”.
Take `CCn1ncc(C(=O)c2ccc(Cl)c(NC(=O)N3CCCN(C(C)C)C3=O)c2Cl)c1O` [Example 101]: the logP entry is given as “(I-2) logP = 2.42^a)”.
In the case of `CCn1ncc(C(=O)c2ccc(Cl)c(NC(=O)N3CCCN(C4CCCCC4)C3=O)c2Cl)c1O` [Example 102], the logP result is given as “(I-2) logP = 3.30^a)”.
Same read-out and setting: the entry for `CCn1ncc(C(=O)c2ccc(C(F)(F)F)cc2N(C)C(=O)N2CCN(C)C2=O)c1O` [Example 103] is “(I-1) logP = 1.78^a)”.
On the same count and under the same terms, the entry for `CCn1ncc(C(=O)c2ccc(Cl)c(NC(=O)NC3CC3)c2Cl)c1O` [Example 104] is “(I-2) logP = 1.25^a)”; for `CCn1ncc(C(=O)c2ccc(Cl)c(NC(=O)NCC3CCCO3)c2Cl)c1O` (stereo not drawn) [Example 105] it is “(I-2) logP = 1.33^a)”; for `CCn1ncc(C(=O)c2ccc(Cl)c(NC(=O)N3CCCCC3)c2Cl)c1O` [Example 106] it is “(I-2) logP = 1.75^a)”.
Still for that read-out and setting: next, `Cn1ncc(C(=O)c2ccc(Cl)c(NC(=O)N3CCCCC3)c2Cl)c1O` [Example 107]: “(I-2) logP = 1.50^a)”.
Consider `CCn1ncc(C(=O)c2ccc(Cl)c(NC(=O)NOC)c2Cl)c1O` [Example 108], for which the logP result is “(I-2) logP = 1.06^a)”.
Same read-out and setting: the entry for `CONC(=O)Nc1c(Cl)ccc(C(=O)c2cnn(C)c2O)c1Cl` [Example 109] is “(I-2) logP = 0.72^a)”.
The same measure, in the same setting: the entry for `CCn1ncc(C(=O)c2ccc(Cl)c(NC(=O)N3CCCC3)c2Cl)c1O` [Example 110] is “(I-2) logP = 1.52^a)”; for `CCn1ncc(C(=O)c2ccc(NC(=O)N3CCN(C)C3=O)cc2OC)c1O` [Example 111] it is “(I-3) logP = 1.74^a)”; for `CCONC(=O)Nc1c(Cl)ccc(C(=O)c2cnn(C)c2O)c1Cl` [Example 127] it is “(I-2) logP = 1.07^a)”.
The same measure, in the same setting: the entry for `CCONC(=O)Nc1c(Cl)ccc(C(=O)c2cnn(CC)c2O)c1Cl` [Example 128] is “(I-2) logP = 1.33^a)”.
On to `CCn1ncc(C(=O)c2ccc(Cl)c(NC(=O)C3=NOCC3)c2Cl)c1O` [Example 148], for which the logP result is “(I-2) logP = 1.45^a)”.
Same read-out and setting: next, `Cn1ncc(C(=O)c2ccc(Cl)c(NC(=O)C3=NOCC3)c2Cl)c1O` [Example 149]: “(I-2) logP = 1.18^a)”.
On the same count and under the same terms, the entry for `CCn1ncc(C(=O)c2ccc(Cl)c(NC(=O)c3ccco3)c2Cl)c1O` [Example 156] is “(I-2) logP = 1.54^a)”; for `Cn1ncc(C(=O)c2ccc(Cl)c(NC(=O)N3CCCO3)c2Cl)c1O` [Example 161] it is “(I-2) logP = 1.11^a)”; for `CCn1ncc(C(=O)c2ccc(Cl)c(NC(=O)N3CCCO3)c2Cl)c1O` [Example 162] it is “(I-2) logP = 1.38^a)”.
On the same count and under the same terms, next, `CCn1ncc(C(=O)c2ccc(Cl)c(N(C)C(=O)N3CCN(C)C3=O)c2Cl)c1O` [Example 171]: “(I-2) logP = 2.88^a)”.
In the case of `CCn1ncc(C(=O)c2ccc(Cl)c(NC(=O)NN3CCCCC3)c2Cl)c1O` [Example 172], the logP result was “(I-2) logP = 1.96^a)”.
Same read-out and setting: next, `Cn1ncc(C(=O)c2ccc(Cl)c(NC(=O)NN3CCCCC3)c2Cl)c1O` [Example 173]: “(I-2) logP = 1.70^a)”; `CCn1ncc(C(=O)c2ccc(Cl)c(NC(=O)Nc3nnc(C)o3)c2Cl)c1O` [Example 174]: “(I-2) logP = 1.20^a)”.
On the same count and under the same terms, the entry for `CCn1ncc(C(=O)c2ccc(Cl)c(NC(=O)Nc3nnc(C(F)(F)F)s3)c2Cl)c1O` [Example 175] is “(I-2) logP = 2.24^a)”; for `CCn1ncc(C(=O)c2ccc(Cl)c(NC(=O)N=c3sccn3C)c2Cl)c1O` [Example 176] it is “(I-2) logP = 1.39^a)”.
Still for that read-out and setting: next, `Cn1ncc(C(=O)c2ccc(Cl)c(NC(=O)N=c3sccn3C)c2Cl)c1O` [Example 177]: “(I-2) logP = 1.13^a)”.
In the case of `CCn1ccsc1=NC(=O)Nc1c(Cl)ccc(C(=O)c2cnn(C)c2O)c1Cl` [Example 178], the logP entry is given as “(I-2) logP = 1.43^a)”.
Same read-out and setting: next, `CCn1ncc(C(=O)c2ccc(Cl)c(NC(=O)N=c3sccn3CC)c2Cl)c1O` [Example 179]: “(I-2) logP = 1.72^a)”; `CCn1ncc(C(=O)c2ccc(Cl)c(NC(=O)NCC(OC)OC)c2Cl)c1O` [Example 180]: “(I-2) logP = 1.13^a)”; `CCn1ncc(C(=O)c2ccc(Cl)c(NC(=O)N3CCCCO3)c2Cl)c1O` [Example 181]: “(I-2) logP = 1.63^a)”.
On the same count and under the same terms, the entry for `Cn1ncc(C(=O)c2ccc(Cl)c(NC(=O)N3CCCCO3)c2Cl)c1O` [Example 182] is “(I-2) logP = 1.36^a)”; for `CCn1nc(C)c(C(=O)c2ccc(Cl)c(NC(=O)N3CCCCO3)c2Cl)c1O` [Example 183] it is “(I-2) logP = 1.53^a)”.
Still for that read-out and setting: the entry for `Cc1nn(C)c(O)c1C(=O)c1ccc(Cl)c(NC(=O)N2CCCCO2)c1Cl` [Example 184] is “(I-2) logP = 1.34^a)”.

Still in this data set, the particulars now being: reversed-phase C18 HPLC column; pH=2.3.
`CN1CCN(C(=O)Nc2c(Cl)ccc(C(=O)O)c2Cl)C1=O` [III-1, 2,4-dichloro-3-[[(3-methyl-2-oxo-1-imidazolidinyl)-carbonyl]-amino]-benzoic acid]: the chromatographic logP (in general, a lipophilicity value derived from retention on a column) was 1.35.
On to `COC(=O)c1ccc(Cl)c(NC(=O)N2CCN(C)C2=O)c1Cl` [IIIa-1, methyl 2,4-dichloro-3-[[(3-methyl-2-oxo-1-imidazolidinyl)-carbonyl]-amino]-benzoate], for which the chromatographic logP is 1.94.
